Experimental data published in the supplement of paper PMC13380429.
± gives the standard deviation of the averaged measurements.

Assays:
Conditions in all cases: 72 h
Vero E6 [1] = experiment: drug sensitivity score (DSS) for viability; higher = more toxic; extreme values may be limits of the assay
HepG2 [2] = experiment: as above
U2OS [3] = experiment: as above
Calu-3 [4] = experiment: as above
Caco-2 [5] = experiment: as above
Vero E6 [6] = experiment: cell viability relative to DMSO; higher = less toxic
HepG2 [7] = experiment: as above
U2OS [8] = experiment: as above
Calu-3 [9] = experiment: as above
Caco-2 [10] = experiment: as above
Vero E6 [11] = experiment: relative viability EC50 (midpoint between 100% and the lowest measured viability); higher = less toxic
HepG2 [12] = experiment: as above
U2OS [13] = experiment: as above
Calu-3 [14] = experiment: as above
Caco-2 [15] = experiment: as above

Structure (SMILES)	drug sensitivity score (Vero E6 [1])	drug sensitivity score (HepG2 [2])	drug sensitivity score (U2OS [3])	drug sensitivity score (Calu-3 [4])	drug sensitivity score (Caco-2 [5])	cell viability (Vero E6 [6]; 1 nM)	cell viability (Vero E6 [6]; 10 nM)	cell viability (Vero E6 [6]; 100 nM)	cell viability (Vero E6 [6]; 1000 nM)	cell viability (Vero E6 [6]; 10000 nM)	cell viability (HepG2 [7]; 1 nM)	cell viability (HepG2 [7]; 10 nM)	cell viability (HepG2 [7]; 100 nM)	cell viability (HepG2 [7]; 1000 nM)	cell viability (HepG2 [7]; 10000 nM)	cell viability (U2OS [8]; 1 nM)	cell viability (U2OS [8]; 10 nM)	cell viability (U2OS [8]; 100 nM)	cell viability (U2OS [8]; 1000 nM)	cell viability (U2OS [8]; 10000 nM)	cell viability (Calu-3 [9]; 1 nM)	cell viability (Calu-3 [9]; 10 nM)	cell viability (Calu-3 [9]; 100 nM)	cell viability (Calu-3 [9]; 1000 nM)	cell viability (Calu-3 [9]; 10000 nM)	cell viability (Caco-2 [10]; 1 nM)	cell viability (Caco-2 [10]; 10 nM)	cell viability (Caco-2 [10]; 100 nM)	cell viability (Caco-2 [10]; 1000 nM)	cell viability (Caco-2 [10]; 10000 nM)	relative viability EC50 (Vero E6 [11])	relative viability EC50 (HepG2 [12])	relative viability EC50 (U2OS [13])	relative viability EC50 (Calu-3 [14])	relative viability EC50 (Caco-2 [15])
CC(=O)[C@H]1CC[C@H]2[C@@H]3CCC4=CC(=O)CC[C@]4(C)[C@H]3CC[C@]12C [progesterone]	0	0	0	0	1.3	92%	108%	91.3%	96.8%	110%	102%	99.9%	102%	96.4%	95.6%	100%	98%	101%	100%	96.8%	95%	98.4%	87.2%	94.5%	92%	97.4%	98.8%	98.4%	87.2%	82.9%	> 10 µM	> 10 µM	> 10 µM	> 10 µM	> 10 µM
O=C(N[C@H]1CCN(C(=O)c2cc(C(F)(F)F)cc(C(F)(F)F)c2)[C@H](Cc2ccc(Cl)cc2)C1)c1ccnc2ccccc12 [AV-608]	0	0	0	0	1.3	96%	100%	101%	97.5%	95.7%	96.2%	103%	98.9%	98.3%	97.3%	101%	98.8%	93.5%	100%	95.5%	115%	98.6%	101%	94.2%	99.4%	89.3%	95%	96.1%	97.4%	75.5%	> 10 µM	> 10 µM	> 10 µM	> 10 µM	> 10 µM
O=C(O)COCCN1CCN(C(c2ccccc2)c2ccc(Cl)cc2)CC1 (stereo not given) [cetirizine]	0	0	0	0	0	93.7 ± 5.7%	97.3 ± 1.6%	88.5 ± 4.5%	95.3 ± 2.4%	100 ± 1.8%	100 ± 1.4%	100 ± 1.1%	101 ± 5.7%	103 ± 3.5%	102 ± 4.1%	95.5 ± 3.3%	98.05 ± 0.071%	96.2 ± 0.14%	93.8 ± 4.5%	102 ± 1.4%	94.7 ± 5.4%	105 ± 1.1%	100.25 ± 0.071%	95.8 ± 8.7%	102 ± 2.5%	91 ± 0.14%	81.8 ± 7.7%	97.8 ± 6.4%	88 ± 12%	107 ± 5.2%	> 10 µM	> 10 µM	> 10 µM	> 10 µM	> 10 µM
CCCc1c(OCC(O)COc2ccc3c(=O)cc(C(=O)O)oc3c2CCC)ccc(C(C)=O)c1O (stereo not given)	0	0	0	0	0	102%	105%	97.2%	97.9%	89.6%	99.8%	107%	96.9%	103%	92.4%	104%	95.5%	102%	97.4%	98.9%	107%	90.8%	99.7%	102%	109%	99.1%	92.4%	93.6%	102%	95%	> 10 µM	> 10 µM	> 10 µM	> 10 µM	> 10 µM
CCCCC(=O)OCC(=O)[C@]1(O)Cc2c(O)c3c(c(O)c2[C@@H](O[C@H]2C[C@H](NC(=O)C(F)(F)F)[C@H](O)[C@H](C)O2)C1)C(=O)c1c(OC)cccc1C3=O [valrubicin]	5.2	15.2	9.5	9	7.5	98.6%	102%	107%	92.3%	29.2%	95.7%	101%	77.9%	33.6%	0.6%	105%	96.7%	103%	70.3%	6.1%	90.7%	95.4%	89.7%	60.9%	26.7%	95.9%	96.8%	92.5%	72.3%	23.3%	2.28 µM	0.43 µM	1.36 µM	0.769 µM	1.36 µM
O=C(N[C@@H](Cc1c[nH]c2ccccc12)C(=O)O)c1ccc(Cl)cc1 [benzotript]	0	0	0	0	0	104%	99.3%	98.1%	102%	107%	99.7%	98.1%	102%	103%	108%	96%	99.5%	94.3%	101%	95.9%	87.8%	99.4%	98%	100%	108%	99.9%	102%	101%	100%	99.4%	> 10 µM	> 10 µM	> 10 µM	> 10 µM	> 10 µM
Cc1ccc(S(=O)(=O)N2CCC[C@H]2c2ccc(F)cc2)cc1 [Ro-67-7476]	0	0	0	0	0	109%	104%	94.1%	104%	100%	106%	104%	96.2%	102%	97.4%	98.8%	95.1%	107%	99.4%	99.2%	106%	101%	94.4%	98.1%	105%	96.6%	102%	102%	97.3%	104%	> 10 µM	> 10 µM	> 10 µM	> 10 µM	> 10 µM
Cc1ccc2c(=O)c3ccccc3n(CCCN)c2c1C	10.3	12.4	5.3	7.3	7	96.2%	99.9%	91.7%	57%	3.7%	99.3%	94.2%	102%	38.2%	5.4%	100%	102%	96.9%	103%	1.3%	97.8%	102%	104%	81.3%	20.6%	100%	92.8%	91.6%	72.7%	28.5%	1.12 µM	0.777 µM	3.33 µM	1.6 µM	1.32 µM
O=C(Nc1c(Cl)cncc1Cl)c1ccc(OC(F)F)c(OCC2CC2)c1 [roflumilast]	0	0	0	0	0	101%	91.2%	99.3%	102%	103%	106%	96.9%	101%	101%	128%	96.4%	98.5%	94.2%	94.8%	99.5%	89.1%	107%	94.2%	93.8%	98.6%	104%	101%	97.3%	100%	101%	> 10 µM	> 10 µM	> 10 µM	> 10 µM	> 10 µM
C[C@@H](O)[C@H]1C(=O)N2C(C(=O)O)=C([C@H]3CCCO3)S[C@H]12 [faropenem]	0	0	0	0	0	97.2%	99.5%	102%	96.8%	97.1%	103%	99.4%	104%	103%	98.7%	101%	101%	94.6%	96.6%	98.8%	106%	96.5%	99.6%	98%	105%	95%	91%	101%	100%	95%	> 10 µM	> 10 µM	> 10 µM	> 10 µM	> 10 µM
Cc1noc(NS(=O)(=O)c2cccc3c(N(C)C)cccc23)c1C	0	0	0	0	0	103%	92.8%	98.3%	90.5%	103%	99.6%	96%	108%	94.5%	110%	93.5%	101%	100%	100%	103%	97.7%	104%	95.4%	97.3%	103%	80.6%	103%	96.7%	91.7%	105%	> 10 µM	> 10 µM	> 10 µM	> 10 µM	> 10 µM
C[C@@H](O)[C@H]1C(=O)N2C(C(=O)O)=C(S[C@@H]3CN[C@H](C(=O)Nc4cccc(C(=O)O)c4)C3)[C@H](C)[C@H]12 [ertapenem]	0	0	0	0	2.7	106%	98.3%	106%	100%	103%	90.9%	97.4%	93.2%	103%	91.9%	94.7%	98.9%	96.8%	101%	99.5%	98.2%	99.7%	94.4%	89.7%	97.8%	101%	114%	84.3%	96.3%	85.9%	> 10 µM	> 10 µM	> 10 µM	> 10 µM	> 10 µM
NC[C@H]1O[C@H](O[C@H]2[C@H](O)[C@@H](O[C@H]3O[C@H](CO)[C@@H](O)[C@H](N)[C@H]3O)[C@H](N)C[C@@H]2N)[C@H](O)[C@@H](O)[C@@H]1O [kanamycin]	0	0	0	0	0	109%	106%	99.3%	99%	102%	109%	88.9%	88%	96.5%	98.5%	102%	102%	96.1%	98.3%	98.2%	100%	104%	101%	114%	95.2%	94.3%	93.1%	88.1%	89.3%	96.1%	> 10 µM	> 10 µM	> 10 µM	> 10 µM	> 10 µM
